Measurements taken from US9944613B2, “Fumagillol spirocyclic compounds and fused bicyclic compounds and methods of making and using same” (Zafgen, Inc., priority 2015, dated 2018).
Counter-ions that a name gives are not always drawn. Like-named read-outs stand apart in the source and are kept apart here.

Experiments:
recombinant human MetAP2 = biological target: T1, recombinant human MetAP2 (Homo sapiens, UniProt P50579); assay: Inhibition of recombinant human MetAP2 activity (MAS peptide / amino acid oxidase / Amplex assay); assay type: biochemical
T1 construct: Flag; made in house
Description: Compounds are tested for their capacity to inhibit recombinant human MetAP2 activity using the following assay.
Flag tagged Human recombinant MetAP2 expressed and isolated for use as the enzyme source. 10 mM stock solutions of compounds were prepared in 100% DMSO and further diluted in 100% DMSO required concentration to 1 mM stocks. The stock compound solutions and DMSO vehicle controls were diluted to target final compound concentrations using assay buffer to a final concentration of 50 mM HEPES containing 100 mM NaCl, pH adjusted to 7.5. The MAS peptide was formulated to a 7.5 mM stock in distilled water and prior to use further diluted 1:4. […] 40 μl of enzyme was mixed with 100 μl of MnCl2 then further diluted in assay buffer to a final concentration of 16 μg/ml. To test for compound effect on MetAP2 enzyme activity, 5 μl of test compound, 10 μl of MAS substrate/amino acid oxidase mixture, 10 μl of MetAP2 was added to test wells in a 384 well black plate with blank wells containing no enzyme, replaced with 10 μl of assay buffer. All compounds were tested in duplicate on two occasions on the same day.
The plate was sealed with a TopSeal A cover and mixed briefly on an orbital mixer at 900 rpm. The plate was incubated for a further 25 minutes at 25° C. A 5× stock of Amplex buffer was prepared (0.25M sodium phosphate, pH 7.4) and stored at 4° C. When preparing for use the stock was diluted with distilled water. […] Horse radish peroxidase was diluted in […] of Amplex buffer, 100 μl of this was combined with 50 μl of Amplex Ultrared in […] of 1× Amplex buffer to generate sufficient detection reagent for a 384 well plate. 25 μl detection reagent was added to each well of the test plate, which was re-sealed and mixed briefly on an orbital shaker. The plate was transferred to an Envision Multi-label reader and RFU measured corresponding to excitation 531 nm and emission 595 nm. At the end of the MetAP2 incubation 25 μl Amplex/HRP mixture per well was added and the plate read plate on a plate reader.

[1] = tested on: Diet Induced Obese (DIO) C57BL/6 mice; assay: 10 day DIO mouse model, weight loss vs. vehicle; assay type: in vivo; conditions: 240 h, 0.3 mpk sc once a day for 10 days
Excerpt: The objective of this study design was to investigate the efficacy of disclosed compounds in a 10 day DIO mouse model. Effects on body weight, food intake, hematology and blood chemistry were the primary readouts of this study design. Male, Diet Induced Obese (DIO) C57BL/6 mice, 19-21 weeks of age (13-15 weeks on high fat diet) were ordered from a certified vendor and upon receipt were housed on irradiated corncob bedding in micro-isolator cages on a 12-hour light-dark cycle (0700-1900) at 68-74° F. and 30-70% humidity. Mice were fed Research Diets D12492 (60% Kcal fat, 20% Kcal carbohydrate and 20% protein) and provided water ad libitum. DIO mice were received and housed in the facility for approximately two weeks prior to the start of test article administration. On Day −4 or −3, mice were randomized into study groups based on body weight and body weights were continued to be recorded daily for the duration of the study. Daily food intake was assessed starting on Study Day −2 by weighing of the food with hopper together to avoid loss of food in transfer.
Compounds were formulated into a 100% DMSO stock (at 9 mg/mL) prior to the start, and further diluted into the target working concentration using the vehicle of 10% DMSO in water. Prior to test article administration, starting on Day −3 a dosing acclimation occured with all animals receiving a subcutaneous injection of vehicle (10% DMSO) only for 3 days. Starting on Day 1, test compounds or vehicle were administered based on individual body weight, subcutaneously, once a day for 10 days. All mice were sacrificed on Day 11, 24 hours following the final dosing on Day 10. After sacrifice, whole blood was collected and analyzed for hematology and blood chemistry parameters.
Compounds were tested for weight loss vs. vehicle at 0.3 and 1.0 mpk sc (mg per kg animal weight delivered subcutaneously), and the results are shown in Table 2 below.

[2] = Flag tagged human recombinant MetAP2, 25 minutes at 25° C., read-out: MetAP2 IC50

T1 sequence (P50579 whole entry): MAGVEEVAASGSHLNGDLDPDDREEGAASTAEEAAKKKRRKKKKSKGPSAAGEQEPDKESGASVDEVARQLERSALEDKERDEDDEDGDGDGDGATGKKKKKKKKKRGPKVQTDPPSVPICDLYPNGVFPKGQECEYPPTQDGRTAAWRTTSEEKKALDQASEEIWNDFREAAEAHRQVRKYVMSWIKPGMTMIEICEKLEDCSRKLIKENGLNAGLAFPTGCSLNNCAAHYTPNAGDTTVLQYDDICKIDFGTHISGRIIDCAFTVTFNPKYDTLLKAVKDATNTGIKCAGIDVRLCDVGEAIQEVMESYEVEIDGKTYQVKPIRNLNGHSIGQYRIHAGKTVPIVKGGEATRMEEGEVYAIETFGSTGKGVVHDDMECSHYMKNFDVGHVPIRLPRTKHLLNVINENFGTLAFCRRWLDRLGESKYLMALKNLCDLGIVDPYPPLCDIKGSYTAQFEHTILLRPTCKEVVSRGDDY

Row | Structure (SMILES) | IC50 (recombinant human MetAP2) [nM] | inhibition in vivo at 0.3 mg/kg [1] [%] | IC50 (recombinant human MetAP2; [2]) [nM]
1 | CO[C@@H]1[C@H](OC(=O)NC2CC3(CCN(C)C3)C2)CC[C@]2(CO2)[C@H]1[C@@]1(C)O[C@@H]1CC=C(C)C (stereo partly drawn) [Example 11, (3R,4S,5S,6R)-5-methoxy-4-((2R,3R)-2-methyl-3-(3-methylbut-2-enyl)oxiran-2-yl)-1-oxaspiro[2.5]octan-6-yl 6-methyl-6-azaspiro[3.4]octan-2-ylcarbamate formate] | < 50 | 6 | 
2 | CO[C@@H]1[C@H](OC(=O)N2CCC3(CCN(CC(F)F)CC3)C2)CC[C@]2(CO2)[C@H]1[C@@]1(C)O[C@@H]1CC=C(C)C [Example 16, (3R,4S,5S,6R)-5-methoxy-4-((2R,3R)-2-methyl-3-(3-methylbut-2-enyl)oxiran-2-yl)-1-oxaspiro[2.5]octan-6-yl 8-(2,2-difluoroethyl)-2,8-diazaspiro[4.5]decane-2-carboxylate] |  | 23.4 | 
3 | CO[C@@H]1[C@H](OC(=O)N2C[C@@H]3[C@@H](CN4CCOCC4)[C@@H]3C2)CC[C@]2(CO2)[C@H]1[C@@]1(C)O[C@@H]1CC=C(C)C [Example 40, (1R,5S,6S)-((3R,4S,5S,6R)-5-methoxy-4-((2R,3R)-2-methyl-3-(3-methylbut-2-enyl)oxiran-2-yl)-1-oxaspiro[2.5]octan-6-yl) 6-(morpholinomethyl)-3-azabicyclo[3.1.0]hexane-3-carboxylate] |  | 11.1 | 
4 | CO[C@@H]1[C@H](OC(=O)N2CC3(CNC(=O)C3)C2)CC[C@]2(CO2)[C@H]1[C@@]1(C)O[C@@H]1CC=C(C)C [Example 25, (3R,4S,5S,6R)-5-methoxy-4-((2R,3R)-2-methyl-3-(3-methylbut-2-enyl)oxiran-2-yl)-1-oxaspiro[2.5]octan-6-yl 7-oxo-2,6-diazaspiro[3.4]octane-2-carboxylate] | < 50 | 2 | 
5 | CNC(=O)[C@H]1[C@@H]2CN(C(=O)O[C@@H]3CC[C@]4(CO4)[C@@H]([C@@]4(C)O[C@@H]4CC=C(C)C)[C@@H]3OC)C[C@@H]21 [Example 32, (1R,5S,6R)-(3R,4S,5S,6R)-5-methoxy-4-((2R,3R)-2-methyl-3-(3-methylbut-2-en-1-yl)oxiran-2-yl)-1-oxaspiro[2.5]octan-6-yl 6-(methylcarbamoyl)-3-azabicyclo[3.1.0]hexane-3-carboxylate] |  | 4 | 50 to 500
6 | CO[C@@H]1[C@H](OC(=O)N2CC3(CCN(C)CC3)C2)CC[C@]2(CO2)[C@H]1[C@@]1(C)O[C@@H]1CC=C(C)C [Example 8, (3R,4S,5S,6R)-5-methoxy-4-((2R,3R)-2-methyl-3-(3-methylbut-2-enyl)oxiran-2-yl)-1-oxaspiro[2.5]octan-6-yl 7-methyl-2,7-diazaspiro[3.5]nonane-2-carboxylate formate] |  | 6.2 | < 50
7 | CO[C@@H]1[C@H](OC(=O)N2CCC3(CCN(C)CC3)C2)CC[C@]2(CO2)[C@H]1[C@@]1(C)O[C@@H]1CC=C(C)C [Example 26, (3R,4S,5S,6R)-5-methoxy-4-((2R,3R)-2-methyl-3-(3-methylbut-2-enyl)oxiran-2-yl)-1-oxaspiro[2.5]octan-6-yl 8-methyl-2,8-diazaspiro[4.5]decane-2-carboxylate] |  | 5.6 | < 50
8 | CO[C@@H]1[C@H](OC(=O)N2CC3CC3C2)CC[C@]2(CO2)[C@H]1[C@@]1(C)O[C@@H]1CC=C(C)C (stereo partly drawn) [Example 21, (3R,4S,5S,6R)-5-methoxy-4-((2R,3R)-2-methyl-3-(3-methylbut-2-enyl)oxiran-2-yl)-1-oxaspiro[2.5]octan-6-yl 3-azabicyclo[3.1.0]hexane-3-carboxylate] |  | 21.2 | 
9 | CO[C@@H]1[C@H](OC(=O)N2C[C@@H]3[C@H](C2)[C@H]3C(=O)NCCN2CCOCC2)CC[C@]2(CO2)[C@H]1[C@@]1(C)O[C@@H]1CC=C(C)C [Example 37, (1R,5S,6R)-(3R,4S,5S,6R)-5-methoxy-4-((2R,3R)-2-methyl-3-(3-methylbut-2-en-1-yl)oxiran-2-yl)-1-oxaspiro[2.5]octan-6-yl 6-((2-morpholinoethyl)carbamoyl)-3-azabicyclo[3.1.0]hexane-3-carboxylate] |  | 4.3 | 
10 | CO[C@@H]1[C@H](OC(=O)N2CC3(CN(C)C3)C2)CC[C@]2(CO2)[C@H]1[C@@]1(C)O[C@@H]1CC=C(C)C [Example 12, (3R,4S,5S,6R)-5-methoxy-4-((2R,3R)-2-methyl-3-(3-methylbut-2-enyl)oxiran-2-yl)-1-oxaspiro[2.5]octan-6-yl 6-methyl-2,6-diazaspiro[3.3]heptane-2-carboxylate] |  | 1.8 | < 50
11 | CO[C@@H]1[C@H](OC(=O)N2CCC3(CCN(C)CC3)CC2)CC[C@]2(CO2)[C@H]1[C@@]1(C)O[C@@H]1CC=C(C)C [Example 28, (3R,4S,5S,6R)-5-methoxy-4-((2R,3R)-2-methyl-3-(3-methylbut-2-enyl)oxiran-2-yl)-1-oxaspiro[2.5]octan-6-yl 9-methyl-3,9-diazaspiro[5.5]undecane-3-carboxylate] |  | 8 | 
12 | CO[C@@H]1[C@H](OC(=O)N2CCC3(CCNC(=O)C3)CC2)CC[C@]2(CO2)[C@H]1[C@@]1(C)O[C@@H]1CC=C(C)C [Example 30, (3R,4S,5S,6R)-5-methoxy-4-((2R,3R)-2-methyl-3-(3-methylbut-2-enyl)oxiran-2-yl)-1-oxaspiro[2.5]octan-6-yl 8-oxo-3,9-diazaspiro[5.5]undecane-3-carboxylate] |  | 1.1 | 
13 | CO[C@@H]1[C@H](OC(=O)N2CCC3(CCN(C)C(=O)C3)CC2)CC[C@]2(CO2)[C@H]1[C@@]1(C)O[C@@H]1CC=C(C)C [Example 31, (3R,4S,5S,6R)-5-methoxy-4-((2R,3R)-2-methyl-3-(3-methylbut-2-enyl)oxiran-2-yl)-1-oxaspiro[2.5]octan-6-yl 9-methyl-8-oxo-3,9-diazaspiro[5.5]undecane-3-carboxylate] |  | 3.6 | 
14 | CO[C@@H]1[C@H](OC(=O)N2CCC3(CC2)CNC(=O)C3)CC[C@]2(CO2)[C@H]1[C@@]1(C)O[C@@H]1CC=C(C)C [Example 29, (3R,4S,5S,6R)-5-methoxy-4-((2R,3R)-2-methyl-3-(3-methylbut-2-enyl)oxiran-2-yl)-1-oxaspiro[2.5]octan-6-yl 3-oxo-2,8-diazaspiro[4.5]decane-8-carboxylate] |  | -0.5 | 
15 | COC(=O)N1C[C@@H]2CN(C(=O)O[C@@H]3CC[C@]4(CO4)[C@@H]([C@@]4(C)O[C@@H]4CC=C(C)C)[C@@H]3OC)C[C@@H]2C1 [Example 42, (3aR,6aS)-2-((3R,4S,5S,6R)-5-methoxy-4-((2R,3R)-2-methyl-3-(3-methylbut-2-enyl)oxiran-2-yl)-1-oxaspiro[2.5]octan-6-yl) 5-methyl tetrahydropyrrolo[3,4-c]pyrrole-2,5(1H,3H)-dicarboxylate] |  | 12.4 | 
16 | CO[C@@H]1[C@H](OC(=O)N2CCC3(CN(CC(F)F)C3)C2)CC[C@]2(CO2)[C@H]1[C@@]1(C)O[C@@H]1CC=C(C)C [Example 15, (3R,4S,5S,6R)-5-methoxy-4-((2R,3R)-2-methyl-3-(3-methylbut-2-enyl)oxiran-2-yl)-1-oxaspiro[2.5]octan-6-yl 2-(2,2-difluoroethyl)-2,6-diazaspiro[3.4]octane-6-carboxylate] |  | 22.5 | 
